Publication PMC10214531 (ACS Central Science, 2023)

Columns and labels:
Assay type in all cases: cell-based, human
[1] = test system: GLP-1R-mediated Gs activation, Gαs L394 to alanine; assay: G protein activation assay (BRET2 TRUPATH), Gαs mutant L394 to alanine; conditions: Gαs L394 replaced by alanine, vs WT; HEK-293T
Experimental: (§1) Cells were treated with 20 μL of each compound.
(§2) Significant difference is accepted at p < 0.05.

GLP-1R alanine mutants = assay: cAMP accumulation assay (GloSensor), alanine scan of 37 GLP-1R residues
GLP-1R R344A = assay: cAMP accumulation assay (GloSensor)
[2] = test system: GLP-1R-mediated Gs activation, Gαs L394 and L393 substituted; assay: G protein activation assay (BRET2 TRUPATH), Gαs double mutant L393 and L394; conditions: Gαs L394 and L393 both substituted, vs WT; HEK-293T
Experimental: as §1, §2

[3] = test system: GLP-1R-mediated Gs activation, Gαs truncation of residues 2-8; assay: G protein activation assay (BRET2 TRUPATH), Gαs truncated 2-8; conditions: Gαs truncation of residues 2-8, vs WT, HEK-293T
Experimental: as §1, §2

[4] = test system: GLP-1R-mediated Gs activation, Gαs alanine mutants; assay: G protein activation assay (BRET2 TRUPATH), alanine scan of 41 Gαs residues; conditions: 16 of 41 Gαs alanine mutants, vs WT
Experimental: as §1, §2

[5] = test system: GLP-1R-mediated Gs activation, Gαs truncation of residues 2-10; assay: G protein activation assay (BRET2 TRUPATH), Gαs truncated 2-10; conditions: Gαs truncation of residues 2-10, vs WT, HEK-293T
Experimental: as §1, §2

GLP-1R Y250 = assay: G protein activation assay (BRET2 TRUPATH); conditions: agonist GLP-1, HEK-293T, s.d.
Experimental: as §1, §2

GLP-1R F169 = assay: G protein activation assay (BRET2 TRUPATH); conditions: agonist GLP-1, HEK-293T, s.d.
Experimental: as §1, §2

[6] = test system: GLP-1R mutants of L172, C174, N177, Y250 and M340; assay: cAMP accumulation assay, mutants of functional residues except F169; conditions: mutants of six functional residues except F169; four independent experiments
Excerpt: The cDNA of human GLP-1R was cloned into vector pcDNA 3.1 or pRK. In the cAMP assay, the GLP-1R sequence comprises the native signal peptide (residues 1–23) and a FLAG tag. In flow cytometry analysis, the GLP-1R sequence contains the same native signal peptide, followed by a FLAG or HA tag. Mutations or deletions for the cAMP assay and flow cytometry were generated using seamless cloning with KOD-Plus-Neo (TOYOBO) and confirmed by DNA sequencing.
After overnight of culture, specified amounts of wild-type or mutant GLP-1R and 0.5 μg of pGloSensor cAMP plasmid were cotransfected into HEK-293T cells using calcium phosphate. After 24 h of culture, the transfected cells were seeded into 384-well plates (12 000 cells per well). cAMP accumulation was measured using the GloSensor cAMP assay kit (Promega) according to the manufacturer’s instructions. In brief, transfected cells were incubated for 30 min in GloSensor cAMP reagent at 37 °C and room temperature.
as §2

Molecule | GLP-1 efficacy in inducing G protein dissociation [1] | GLP-1 potency in cAMP signaling induction (GLP-1R alanine mutants; 18 of 37 GLP-1R alanine mutants, vs WT) | GLP-1 efficacy (cAMP) (GLP-1R alanine mutants; two mutants with abnormal expression (gray columns in Figure 5b)) | EC50 (GLP-1R R344A; agonist GLP-1, HEK-293T, 15 min, 25 °C, surface expression 31±4.03 % WT) [pM] | Emax (GLP-1R R344A; agonist GLP-1, cAMP accumulation, HEK-293T) [WT %] | GLP-1 activity in G protein dissociation [2] | Gs protein activation mediated by GLP-1R [3] | GLP-1 efficacy in Gs activation [4] | Gs protein activation mediated by GLP-1R [5] | Emax (GLP-1R Y250) [% WT] | Emax (GLP-1R F169) [% WT] | cAMP signaling vs WT [6]
CC[C@H](C)[C@H](NC(=O)[C@H](Cc1ccccc1)NC(=O)[C@H](CCC(=O)O)NC(=O)[C@H](CCCCN)NC(=O)[C@H](C)NC(=O)[C@H](C)NC(=O)[C@H](CCC(N)=O)NC(=O)CNC(=O)[C@H](CCC(=O)O)NC(=O)[C@H](CC(C)C)NC(=O)[C@H](Cc1ccc(O)cc1)NC(=O)[C@H](CO)NC(=O)[C@H](CO)NC(=O)[C@@H](NC(=O)[C@H](CC(=O)O)NC(=O)[C@H](CO)NC(=O)[C@@H](NC(=O)[C@H](Cc1ccccc1)NC(=O)[C@@H](NC(=O)CNC(=O)[C@H](CCC(=O)O)NC(=O)[C@H](C)NC(=O)[C@@H](N)Cc1c[nH]cn1)[C@@H](C)O)[C@@H](C)O)C(C)C)C(=O)N[C@@H](C)C(=O)N[C@@H](Cc1c[nH]c2ccccc12)C(=O)N[C@@H](CC(C)C)C(=O)N[C@H](C(=O)N[C@@H](CCCCN)C(=O)NCC(=O)N[C@@H](CCCNC(=N)N)C(N)=O)C(C)C [GLP-1] | decrease in GLP-1 efficacy | significant reduction of GLP-1 potency in cAMP signaling induction for 18 mutants | deficient GLP-1 efficacy | 86.5 ± 9.9 | 80±4 | completely abolished the GLP-1 activity | significantly attenuated the Gs protein activation | significant reduction of GLP-1 efficacy in Gs activation for 16 mutants | significantly attenuated the Gs protein activation | 13.84±2.59 | 101.04±3.59 | –
exendin-4: another peptide agonist (exendin-4) | – | – | – | – | – | – | – | – | – | – | – | attenuated cAMP signaling
N#Cc1ccc(COc2cccc(C3CCN(Cc4nc5ccc(C(=O)O)cc5n4C[C@@H]4CCO4)CC3)n2)c(F)c1 [PF 06882961] | – | – | – | – | – | – | – | – | – | – | – | attenuated cAMP signaling
